melting point [°C] | SMILES
204 to 205 | Cn1ncc2c1-c1c(Oc3ccc4c(c3)OCO4)sc(C(N)=O)c1CC2 [Reference Example 4, 4,5-Dihydro-1-methyl-8-(3,4-methylenedioxyphenoxy)-1H-thieno[3,4-g]indazole-6-carboxamide]
249 to 250 | Cn1ncc2c1-c1c(Oc3ccc(OCc4ccncc4)cc3)sc(C(N)=O)c1CC2 [compound 14, 4,5-Dihydro-1-methyl-8-[4-(4-pyridylmethyloxy)phenoxy]-1H-thieno[3,4-g]indazole-6-carboxamide]
188 to 189 | Cn1ncc2c1-c1c(Oc3ccc(F)cc3)sc(C(N)=O)c1CC2 [compound 15, 4,5-Dihydro-1-methyl-8-(4-fluorophenoxy)-1H-thieno[3,4-g]indazole-6-carboxamide]
212 to 213 | Cn1ncc2c1-c1c(Oc3ccc(OC(F)(F)F)cc3)sc(C(N)=O)c1CC2 [compound 7, 4,5-Dihydro-1-methyl-8-(4-trifluoromethoxyphenoxy)-1H-thieno[3,4-g]indazole-6-carboxamide]
203 to 205 | COc1ccc(Oc2sc(C(N)=O)c3c2-c2c(cnn2C)CC3)cc1 [compound 6, 4,5-Dihydro-1-methyl-8-(4-methoxyphenoxy)-1H-thieno[3,4-g]indazole-6-carboxamide]
190 to 191 | Cc1cccc(Oc2sc(C(N)=O)c3c2-c2c(cnn2CC(F)(F)F)CC3)c1C [compound 9, 4,5-Dihydro-8-(2,3-dimethylphenoxy)-1-(2,2,2-trifluoroethyl)-1H-thieno[3,4-g]indazole-6-carboxamide]
200 to 201 | Cn1ncc2c1-c1c(Oc3ccc(OCc4ccccc4)cc3)sc(C(N)=O)c1CC2 [compound 5, 8-(4-Benzyloxyphenoxy)-4,5-dihydro-1-methyl-1H-thieno[3,4-g]indazole-6-carboxamide]

Source: patent publication US20030185878A1, “Process for producing phospholipid-containing drug” (priority 2002, published 2003)
